# Measured values from paper PMC7447632, “Highly functionalized β-lactams and 2-ketopiperazines as TRPM8 antagonists with antiallodynic activity” (Scientific Reports, 2020).
# Tests used:
# Format in all cases: cell-based
# [1] = test system: A549 (lung carcinoma, NSCLC); experiment: SRB cytotoxicity assay, A549; settings: 72 h, SRB; for TGI A549: total growth inhibition; for TGI A549 / CC50: unit inferred; for GI50 / CC50: Homo sapiens, A549; for CC50: read-out: LC50 A549
# Procedure: (§1) Human tumor cell lines used in this study were purchased from the ATCC. A-549 (CCL-185), lung carcinoma; HT-29 (HTB-38), colorectal adenocarcinoma; MDA-MB-231 (HTB-26), breast adenocarcinoma; PSN1, pancreas adenocarcinoma.
# (§2) All cell lines were maintained in DMEM (Dulbecco’s Modified Eagle's Medium) culture medium supplemented with 10% FBS (Fetal Bovine Serum), 100 Units/mL penicillin/streptomycin at 37 °C, 5% CO2 and 95% humidity.
# (§3) Triplicate cultures were incubated for 72 h in the presence or absence of test compounds in dose–response curves (10 concentrations, typically ranging from 10 to 0.0026 µg/mL). A colorimetric assay using sulforhodamine B (SRB) was adapted for quantitative measurement of cell growth and cytotoxicity. A more detailed information on this assay is provides in the supplementary information. GI50 is the compound concentration that produces 50% inhibition on cell growth as compared to control cells.
# (§4) In vitro bioassays for the detection of antitumor activity
# (§5) The aim of this assay is to evaluate the in vitro cytostatic (ability to delay or arrest tumor cell growth) or cytotoxic (ability to kill tumor cells) activity of the samples […]
# (§6) Name Nº ATCC Species Tissue Characteristics
# (§7) A549 CCL-185 human lung lung carcinoma (NSCLC)
# (§8) HT29 HTB-38 human colon colorectal adenocarcinoma
# (§9) MDA-MB-231 HTB-26 human breast breast adenocarcinoma
# (§10) PSN1 CRM-CRL-3211 human pancreas pancreas adenocarcinoma […]
# (§11) A colorimetric assay, using Sulforhodamine B (SRB) reaction has been adapted to provide a quantitative measurement of cell growth and viability (following the technique described by Skehan et al. J. Natl. Cancer Inst. 1990, 82, 1107-1112 […]
# (§12) This form of assay employs 96-well cell culture microplates following the standards of the American National Standards Institute and the Society for Laboratory […]
# (§13) used in this study were obtained from the American Type Culture Collection (ATCC) and derive from different types of human cancer.
# (§14) A549, HT29, MDA-MB-231 and PSN1 cells were maintained in Dulbecco’s
# (§15) Modified Eagle Medium (DMEM) supplemented with 10% Fetal Bovine Serum (FBS), 2mM L-glutamine, 100 U/mL penicillin, and 100 U/mL streptomycin at 37 °C, 5% CO2 and 98% humidity. For the experiments, cells were harvested from subconfluent cultures using trypsinization and resuspended in fresh medium before counting and […]
# (§16) A549, HT29, MDA-MB-231 and PSN1 cells were seeded in 96 well microtiter plates, at 5000 cells per well in aliquots of 150 µL, and allowed to attach to the plate surface for 18 hours (overnight) in drug free medium. After that, one control (untreated) plate of each cell line was fixed (as described below) and used for time zero reference value. Culture plates were then treated with test compounds (50 µL aliquots of 4X stock […]
# (§17) solutions in complete culture medium plus 4% DMSO) using ten 2/5 serial dilutions (concentrations ranging from 10 to 0.003 µg/mL) and triplicate cultures (1% final concentration in DMSO). After 72 hours treatment, the antitumor effect was measured by using the SRB methodology: Briefly, cells were washed twice with PBS, fixed for 15 min in 1% glutaraldehyde solution at room temperature, rinsed twice in PBS, and stained in 0.4% SRB solution for 30 min at room temperature. Cells were then rinsed several times with 1% acetic acid solution and air-dried at room temperature. SRB was then extracted in 10 mM trizma base solution and the absorbance measured in an automated spectrophotometric plate reader at 490 nm.
# (§18) Effects on cell growth and survival were estimated by applying the NCI algorithm (Boyd MR and Paull KD. Drug Dev. Res. 1995, 34, 91-109, DOI:10.1002/ddr.430340203). The values obtained in triplicate cultures were fitted by nonlinear regression to a four-parameters logistic curve by nonlinear regression analysis. . Using the absorbance measurements [time zero, (Tz), control growth, (C), and test growth in the presence of drug at the ten concentration levels (Ti)], the […]
# [2] = test system: PSN1 (pancreas adenocarcinoma); experiment: SRB cytotoxicity assay, PSN1; settings: 72 h, SRB; for TGI PSN1: total growth inhibition; for TGI PSN1 / CC50: unit inferred; for GI50 / CC50: Homo sapiens, PSN1; for CC50: read-out: LC50 PSN1
# Procedure: as §1, §2, §3, §4, §5, §6, §7, §8, §9, §10, §11, §12, §13, §14, §15, §16, §17, §18
# [3] = test system: HT29 (colorectal adenocarcinoma); experiment: SRB cytotoxicity assay, HT29; settings: 72 h, SRB; for TGI HT29: total growth inhibition; for TGI HT29 / CC50: unit inferred; for GI50 / CC50: Homo sapiens, HT-29; for CC50: read-out: LC50 HT29
# Procedure: as §1, §2, §3, §4, §5, §6, §7, §8, §9, §10, §11, §12, §13, §14, §15, §16, §17, §18
# [4] = test system: MDA-MB-231 (breast adenocarcinoma); experiment: SRB cytotoxicity assay, MDA-MB-231; settings: 72 h, SRB; for TGI MDA-MB-231: total growth inhibition; for TGI MDA-MB-231 / CC50: unit inferred; for GI50 / CC50: Homo sapiens, MDA-MB-231; for CC50: read-out: LC50 MDA-MB-231
# Procedure: as §1, §2, §3, §4, §5, §6, §7, §8, §9, §10, §11, §12, §13, §14, §15, §16, §17, §18
# rat TRPM8 channel = biological target: T1, rat TRPM8 channel (Rattus norvegicus, UniProt Q8R455); experiment: Ca2+ microfluorometry, menthol-induced Ca2+ influx in HEK293 cells expressing rat TRPM8; settings: 100 µM menthol, HEK-rTRPM8; for % Blockade 5 µM: 5 µM compound; for % Blockade 50 µM: 50 µM compound; for IC50: Ca2+ microfluorometry
# T1 construct: expressed in transfected cells; host or cells: HEK293 (stably transfected)
# T1 sequence (Q8R455 whole entry): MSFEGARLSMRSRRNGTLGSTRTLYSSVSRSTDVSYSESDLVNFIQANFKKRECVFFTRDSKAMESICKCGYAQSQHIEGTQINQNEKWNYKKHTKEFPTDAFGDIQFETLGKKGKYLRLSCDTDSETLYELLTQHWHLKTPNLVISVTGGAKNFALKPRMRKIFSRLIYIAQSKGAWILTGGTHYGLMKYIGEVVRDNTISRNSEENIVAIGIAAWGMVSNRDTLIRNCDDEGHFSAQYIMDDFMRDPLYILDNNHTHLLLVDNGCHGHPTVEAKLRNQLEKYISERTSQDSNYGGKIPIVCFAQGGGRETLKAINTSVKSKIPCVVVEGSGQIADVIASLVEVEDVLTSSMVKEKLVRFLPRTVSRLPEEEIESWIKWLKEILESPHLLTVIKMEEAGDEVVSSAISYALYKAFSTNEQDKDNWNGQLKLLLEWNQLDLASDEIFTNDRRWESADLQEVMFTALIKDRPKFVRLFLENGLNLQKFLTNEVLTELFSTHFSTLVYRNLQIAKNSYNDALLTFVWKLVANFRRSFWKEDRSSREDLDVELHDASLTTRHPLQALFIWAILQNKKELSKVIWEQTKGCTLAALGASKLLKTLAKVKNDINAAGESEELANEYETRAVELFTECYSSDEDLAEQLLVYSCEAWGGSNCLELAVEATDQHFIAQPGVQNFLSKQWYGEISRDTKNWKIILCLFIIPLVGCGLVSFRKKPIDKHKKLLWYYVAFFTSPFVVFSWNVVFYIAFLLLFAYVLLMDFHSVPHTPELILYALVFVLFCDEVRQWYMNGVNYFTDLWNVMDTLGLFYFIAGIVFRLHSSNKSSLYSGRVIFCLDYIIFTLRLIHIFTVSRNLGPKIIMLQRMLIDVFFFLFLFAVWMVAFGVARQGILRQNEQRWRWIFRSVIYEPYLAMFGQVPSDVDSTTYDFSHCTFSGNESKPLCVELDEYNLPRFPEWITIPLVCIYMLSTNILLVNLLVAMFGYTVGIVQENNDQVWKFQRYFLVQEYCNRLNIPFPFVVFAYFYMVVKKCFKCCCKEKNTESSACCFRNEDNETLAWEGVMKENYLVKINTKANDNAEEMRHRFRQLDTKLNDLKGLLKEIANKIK
# Procedure: The ability to inhibit menthol-induced Ca^2+ intracellular influx into the cytosol on HEK293 cells heterologously expressing the rat TRPM8 channel was measured and compared to that of AMTB, a well-known TRPM8 antagonist. Representative recordings of fluorescence obtained in microfluorometry experiments for selected compounds are in Supplementary Fig. S3.
# Human embryonic kidney cell line (HEK) stably transfected with rTRPM8 or h-TRPV1 were used as previously described. Briefly, cells were seeded in 96-well plates at a cell density of 30,000 cells 2 days before treatment. Buffer used was HBBS (in mM): 138 NaCl, 5.33 KCl, 1.26 CaCl2, 0.5 MgCl-6H2O, 0.4 MgSO4-7H2O, 4 NaHCO3 0.44 KH2PO4, 0.3 Na2HPO4, pH 7.4. The day of treatment the medium was replaced with 100 µL of the dye loading solution Fluo-4 NW supplemented with probenecid 2.5 mM. After incubation, plates were transferred to a fluorescence plate reader (Polastar BMG). In the experimental protocol, the baseline fluorescence was recorded ([…]) for 3 cycles. After, vehicle, compound at different concentrations and the corresponding antagonist, 10 µM AMTB for TRPM8 or 10 µM Ruthenium Red for TRPV1 were added to the well. Fluorescence intensity was recorded during 7 cycles more. Finally, the agonist 100 µM menthol for TRPM8 or 1 µM capsaicin for TRPV1 was added and fluorescence intensity was recorded during 10 cycles more.
# The degree of inhibition of TRPM8 channel gating was calculated by comparison to calcium increase signal elicited by test substances and menthol at 100 µM. Decrease of menthol signal was expressed as percentage of inhibition (%). All data are expressed as mean ± standard deviation (SD). Each condition was assessed by triplicate (n = 3) in 3 independent experiments (N = 3). Z-factor was calculated in each assay using the following equation: […]. In all the experiments Z-factor was ≥ 0.5. To calculate IC50, normalized responses (%) versus log [µM] were adjusted to a non-linear fit with variable slope, a four-parameter dose–response curve following curve Y = 100/(1 + 10^((Log IC50-X)*HillSlope)) where […].
% Blockade 5 µM (rat TRPM8 channel) [%],% Blockade 50 µM (rat TRPM8 channel) [%],IC50 (rat TRPM8 channel) [µM],SMILES,TGI A549 [1] [µM],GI50 [1] [µM],CC50 [1] [µM],TGI PSN1 [2] [µM],GI50 [2] [µM],CC50 [2] [µM],TGI HT29 [3] [µM],GI50 [3] [µM],CC50 [3] [µM],TGI MDA-MB-231 [4] [µM],GI50 [4] [µM],CC50 [4] [µM]
65.4 ± 6.4,110.7 ± 11.7,2.4 ± 1.2,"C[C@@H]1C(=O)N(C[C@H](Cc2ccccc2)NC(=O)OCc2ccccc2)[C@]1(Cc1ccccc1)C(=O)OCc1ccccc1 [Compound 24a, 4S-Benzyl-4-benzyloxycarbonyl-3S-methyl-1-[(2′S-benzyloxycarbonylamino-3′-phenyl)prop-1′-yl]-2-oxoazetidine]",> 17.3,3.29,> 17.3,> 17.3,5.55,> 17.3,> 17.3,4.16,> 17.3,> 17.3,> 17.3,> 17.3
97.2 ± 4.8,100.0 ± 5.0,0.4,"C[C@@H]1C(=O)N(C[C@@H](Cc2ccccc2)NC(=O)OCc2ccccc2)[C@]1(Cc1ccccc1)C(=O)OCc1ccccc1 [Compound 29a, 4S-Benzyl-4-benzyloxycarbonyl-3S-methyl-1-[(2′R-benzyloxycarbonylamino-3′-phenyl)prop-1′-yl]-2-oxoazetidine]",> 17.3,5.9,> 17.3,> 17.3,6.42,> 17.3,> 17.3,7.11,> 17.3,> 17.3,12.7,> 17.3
